Assay results reported in patent publication US6399824B1, “Substituted cinnamic, acid guanidides, process for their preparation, their use as a medicament, and medicament comprising them” (Aventis Pharma Deutschland GmbH, priority 2000, dated 2002).
Structures can show the parent of a compound that is named as a salt.

Columns and labels:
rNHE3 = target: T1, rNHE3 (Rattus norvegicus, UniProt P26433); experiment: Recovery of intracellular pH (pHi) after acidification, BCECF fluorescence, NHE inhibition; type: cell-based; details: pH recovery recorded 3 minutes for NHE3; bicarbonate-free conditions
T1 construct: expressed in transfected cells
T1 sequence (P26433 29-831): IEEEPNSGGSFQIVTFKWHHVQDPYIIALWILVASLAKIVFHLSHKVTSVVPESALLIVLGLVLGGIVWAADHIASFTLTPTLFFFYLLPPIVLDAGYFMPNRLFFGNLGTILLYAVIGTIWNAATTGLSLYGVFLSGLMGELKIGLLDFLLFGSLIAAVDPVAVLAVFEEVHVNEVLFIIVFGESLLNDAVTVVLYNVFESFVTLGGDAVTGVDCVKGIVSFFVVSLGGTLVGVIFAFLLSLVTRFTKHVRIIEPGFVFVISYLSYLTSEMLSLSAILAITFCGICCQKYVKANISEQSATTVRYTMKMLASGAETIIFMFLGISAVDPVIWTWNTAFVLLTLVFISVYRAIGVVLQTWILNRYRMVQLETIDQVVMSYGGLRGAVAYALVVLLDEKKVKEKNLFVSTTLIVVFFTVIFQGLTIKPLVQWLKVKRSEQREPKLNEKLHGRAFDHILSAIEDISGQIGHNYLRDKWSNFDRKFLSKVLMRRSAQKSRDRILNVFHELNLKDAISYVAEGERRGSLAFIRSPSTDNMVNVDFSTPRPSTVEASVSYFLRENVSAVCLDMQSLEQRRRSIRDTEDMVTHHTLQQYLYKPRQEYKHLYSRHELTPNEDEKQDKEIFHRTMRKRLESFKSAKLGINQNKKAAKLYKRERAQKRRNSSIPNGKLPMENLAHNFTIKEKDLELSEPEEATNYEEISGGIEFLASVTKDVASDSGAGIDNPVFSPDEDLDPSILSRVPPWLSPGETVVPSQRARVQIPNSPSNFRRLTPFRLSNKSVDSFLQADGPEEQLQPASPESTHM
Method: In this test, the recovery of the intracellular pH (pHi) which commences with functional NHE after acidification even under bicarbonate-free conditions. For this, the pHi was determined using the pH-sensitive fluorescent dye BCECF (Calbiochem, the precursor BCECF-AM is employed). The cells were first loaded with BCECF. The BCECF fluorescence was determined in a ratio fluorescence spectrometer (Photon Technology International, South Brunswick, N.J., USA) at excitation wavelengths of 505 and 440 nm and an emission wavelength of 535 nm and converted into the pHi by means of calibration curves. During BCECF loading, the cells were already incubated in NH4Cl buffer (pH 7.4) (NH4Cl buffer: 115 mM NaCl, 20 mM NH4Cl, 5 mM KCl, 1 mM CaCl2, 1 mM MgSO4, 20 mM Hepes, 5 mM glucose, 1 mg/ml of BSA; a pH of 7.4 is set using 1 M NaOH). The intracellular acidification was induced by addition of 975 μl of an NH4Cl-free buffer (see below) to 25 μl aliquots of the cells incubated in NH4Cl buffer. The subsequent rate of the pH recovery was recorded for 2 minutes in the case of NHE1, for 5 minutes in the case of NHE2 and 3 minutes in the case of NHE3. For the calculation of the inhibitory potency of the tested substances, the cells were first investigated in buffers in which a complete recovery or no pH recovery at all took place. For complete pH recovery (100%), the cells were incubated in Na^+-containing buffer (133.8 mM NaCl, 4.7 mM KCl, 1.25 mM CaCl2, 1.25 mM MgCl2, 0.97 mM Na2HPO4, 0.23 mM NaH2PO4, 5 mM Hepes, 5 mM glucose, a pH of 7.0 is set using 1 M NaOH). For the determination of the 0% value, the cells were incubated in an Na^+-free buffer (133.8 mM choline chloride, 4.7 mM KCl, 1.25 mM CaCl2, 1.25 mM MgCl2, 0.97 mM K2HPO4, 0.23 mM KH2PO4, 5 mM Hepes, 5 mM glucose, a pH of 7.0 is set using 1 M NaOH). The substances to be tested were applied in the Na^+-containing buffer. The recovery of the intracellular pH at any tested concentration of a substance was expressed as a percentage of the maximum recovery. By means of the program Sigma Plot, the IC50 value of the respective substance for the individual NHE subtypes was calculated from the percentage values of the pH recovery.

[1] = Solubility by UV spectroscopy in 0.9% strength NaCl solution; type: physicochemical; details: 0.9% NaCl solution, saline or isotonic
Method: The solubilities indicated below are determined by UV spectroscopy in a 0.9% strength NaCl solution.

| SMILES | IC50 (rNHE3) | solubility [1] |
| --- | --- | --- |
| C/C(=C\c1ccc(Nc2ccc(S(=O)(=O)N3CCN(C)CC3)cc2)cc1)C(=O)N=C(N)N.Cl.Cl [Example 12, N-(2-Methyl-3-{4-[4-(4-methylpiperazine-1-sulfonyl)phenylamino]phenyl}acryloyl)-guanidine; HCl salt] | 2600 nM | 1760 µg/mL |
| C/C(=C\c1cc(F)c(Oc2ccc(S(N)(=O)=O)cc2)c(F)c1)C(=O)N=C(N)N [Example 2, 4-[2,6-Difluoro-4-(3-guanidino-2-methyl-3-oxopropenyl)phenoxy]benzenesulfonamide; methanesulfonate] | 20 nM | – |
| C/C(=C\c1ccc(Nc2ccc(S(=O)(=O)N(C)C3CCN(C)C3)cc2)cc1)C(=O)N=C(N)N.Cl.Cl (centres unmarked) [Example 13, 4-[4-(3-Guanidino-2-methyl-3-oxopropenyl)phenylamino]-N-methyl-N-(1-methyl-pyrrolidin-3-yl)benzenesulfonamide, HCl salt] | 590 nM | 3080 µg/mL |
| CNS(=O)(=O)c1ccc(Nc2ccc(/C=C(\C)C(=O)N=C(N)N)cc2)cc1 [Example 14, 4-[4-(3-Guanidino-2-methyl-3-oxopropenyl)phenylamino]-N-methylbenzenesulfonamide; HCl salt] | 850 nM | – |
| CNC(=O)NS(=O)(=O)c1ccc(Oc2c(F)cc(/C=C(\C)C(=O)N=C(N)N)cc2F)cc1 [Example 8, 4-[2 ,6-Difluoro-4-(3-guanidino-2-methyl-3-oxopropenyl)phenoxy]benzenesulfone N-(carboxy-N′-methylamid)amide; HCl salt] | 90 nM | – |
| C/C(=C\c1ccc(Nc2ccc(S(=O)(=O)NCCN3CCCC3)cc2)cc1)C(=O)N=C(N)N.Cl.Cl [Example 11, 4-[4-(3-Guanidino-2-methyl-3-oxopropenyl)phenylamino]-N-(2-pyrrolidin-1-ylethyl)-benzenesulfonamide; HCl salt] | 850 nM | 1520 µg/mL |
| C/C(=C\c1cc(F)c(Oc2ccc(S(N)(=O)=O)cc2)c(F)c1)C(=O)N=C(N)N [Example 1, 4-[2,6-Difluoro-4-(3-guanidino-2-methyl-3-oxopropenyl)phenoxy]benzenesulfonamide; HCl salt] | 70 nM | – |
| C/C(=C\c1ccc(Nc2ccc(S(N)(=O)=O)cc2)cc1)C(=O)N=C(N)N [Example 4, 4-[4-(3-Guanidino-2-methyl-3-oxopropenyl)phenylamino]benzenesulfonamide; trifluoroacetate] | 620 nM | – |
| C/C(=C\c1ccc(Nc2cccc(S(N)(=O)=O)c2)cc1)C(=O)N=C(N)N [Example 5, 3-[4-(3-Guanidino-2-methyl-3-oxopropenyl)phenylamino]benzenesulfonamide, trifluoroacetate] | 1200 nM | – |
| C/C(=C\c1cc(F)c(Oc2ccc(S(=O)(=O)N3CCN(C)CC3)cc2)c(F)c1)C(=O)N=C(N)N [Example 7, N-(3-{3,5-Difluoro-4-[4-(4-methylpiperazin-1-sulfonyl)phenoxy]phenyl}-2-methyl-acryloyl)guanidine; trifluoroacetate] | 2600 nM | > 2190 µg/mL |
| CCNC(=O)NS(=O)(=O)c1ccc(Oc2c(F)cc(/C=C(\C)C(=O)N=C(N)N)cc2F)cc1 [Example 9, 4-[2,6-Difluoro-4-(3-guanidino-2-methyl-3-oxopropenyl)phenoxy]benzenesulfone N-(carboxy-N′-ethylamid)amide; HCl salt] | 70 nM | – |
| C/C(=C\c1ccc(Oc2ccc(S(N)(=O)=O)cc2)cc1)C(=O)N=C(N)N [Example 3, 4-[4-(3-Guanidino-2-methyl-3-oxopropenyl)phenoxy]benzenesulfonamide; HCl salt] | 130 nM | – |
| C/C(=C\c1cc(F)c(Oc2ccc(S(=O)(=O)NCCN(C)C)cc2)c(F)c1)C(=O)N=C(N)N.Cl.Cl [Example 6, 4-[2 ,6-Difluoro-4-(3-guanidino-2-methyl-3-oxopropenyl)phenoxy]-N-(2-dimethylaminoethyl)benzenesulfonamide, HCl salt] | 60 nM | 1860 µg/mL |
| C/C(=C\c1ccc(Nc2ccc(S(=O)(=O)NCCN(C)C)cc2)cc1)C(=O)N=C(N)N.Cl.Cl [Example 10, N-(2-Dimethylaminoethyl)-4-[4-(3-guanidino-2-methyl-3-oxopropenyl)phenylamino]-benzenesulfonamide; HCl salt] | 1100 nM | 1280 µg/mL |
